Patent US12612360B2 (Sanofi, priority 2020, dated 2026)

Target: T1, ERα (Homo sapiens, UniProt P03372)
T1 construct: host or cells: MCF7
T1 sequence (P03372 1-595): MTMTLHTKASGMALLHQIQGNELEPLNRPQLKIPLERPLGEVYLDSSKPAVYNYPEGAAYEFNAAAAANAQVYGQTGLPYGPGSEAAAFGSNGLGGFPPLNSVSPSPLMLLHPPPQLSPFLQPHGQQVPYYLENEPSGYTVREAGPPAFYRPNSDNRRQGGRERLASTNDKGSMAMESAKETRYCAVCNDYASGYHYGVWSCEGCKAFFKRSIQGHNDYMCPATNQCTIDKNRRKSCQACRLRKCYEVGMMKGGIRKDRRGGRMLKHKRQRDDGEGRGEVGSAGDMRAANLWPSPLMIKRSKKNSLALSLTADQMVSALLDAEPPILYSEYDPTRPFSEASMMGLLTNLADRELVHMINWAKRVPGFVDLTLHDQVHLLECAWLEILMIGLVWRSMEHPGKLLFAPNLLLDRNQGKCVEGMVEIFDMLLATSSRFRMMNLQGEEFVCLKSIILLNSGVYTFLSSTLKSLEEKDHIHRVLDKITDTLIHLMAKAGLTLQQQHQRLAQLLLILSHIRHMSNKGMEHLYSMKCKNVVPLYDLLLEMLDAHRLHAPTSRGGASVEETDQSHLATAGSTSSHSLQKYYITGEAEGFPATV
Experiment: Estrogen receptor degradation activity: breast cancer cell ERα in cell western assay (MCF7 cells)
Format: cell-based
Settings: for % Degradation At 0.3 μM: 4 hours, relative to fulvestrant 0.1 μM positive control; for DC50: 4 hours post compound addition, concentration which degrades 50% of the estrogen receptor, read-out: Degradation IC50
Description: Test: Estrogen Receptor Degradation Activity Said test involves measuring the in vitro degradation activity of the compounds of the Table 1a. The measurements of the degradation activities were made using a breast cancer cell ERα in cell western assay as described hereunder. MCF7 cells (ATCC) were seeded in 384 wells microplate (collagen coated) at a concentration of 10000 cells/30 μL per well in red phenol free MEM alpha medium (invitrogen) containing 5% charcoal dextran striped FBS. The following day, 9 points serial 1:5 dilution of each compound was added to the cells in 2.5 μL at final concentrations ranging from […] (in table 2), or 0.1 μM for fulvestrant (using as positive control). At 4 hours post compound addition the cells were fixed by adding 25 μL of formalin (final concentration 5% formalin containing 0.1% triton) for 10 minutes at room temperature and then washed twice with PBS. Then, 50 μL of LI-COR blocking buffer containing 0.1% Triton was added to plate for 30 minutes at room temperature. LI-COR blocking buffer was removed and cells were incubated overnight at cold room with 50 μL anti-ER rabbit monoclonal antibody (Thermo scientific MA1-39540) diluted at 1:1000 in LI-COR blocking buffer containing 0.1% tween-20. Wells which were treated with blocking buffer but no antibody were used as background control. Wells were washed twice with PBS (0.1% tween-20) and incubated at 37° C. for 60 minutes in LI-COR (0.1% tween-20) containing goat anti-rabbit antibody Alexa 488 (1:1000) and Syto-64 a DNA dye (2 μM final concentration). Cells were then washed 3 times in PBS and scanned in ACUMEN explorer (TTP-Labtech). Integrated intensities in the green fluorescence and red fluorescence were measured to determine the levels of ERα and DNA respectively. The degradation activity with respect to estrogen receptors in this test is given by the concentration which degrades 50% of the estrogen receptor (or IC50) in nM. […] DMSO−fulvestrant)).

Compound | % Degradation At 0.3 μM | DC50
Cc1ccccc1C1=C(c2ccc(C=C3CN(CCCF)C3)cc2)c2ccc(C(=O)O)cc2CCC1 [Example 99, 9-(4-((1-(3-fluoropropyl)azetidin-3-ylidene)methyl)phenyl)-8-(o-tolyl)-6,7-dihydro-5H-benzo[7]annulene-3-carboxylic acid] | 95% | 300 pM
O=C(O)c1ccc2c(c1)CCCC(c1cccc(Cl)c1C(F)(F)F)=C2c1ccc(C=C2CN(CCCF)C2)cc1 [Example 23, 8-(3-chloro-2-(trifluoromethyl)phenyl)-9-(4-((1-(3-fluoropropyl)azetidin-3-ylidene)methyl)phenyl)-6,7-dihydro-5H-benzo[7]annulene-3-carboxylic acid] | 96% | 400 pM
CC(=C1CN(CCCF)C1)c1ccc(C2=C(c3ccc(Cl)cc3Cl)CCCc3cc(C(=O)O)ccc32)cc1 [Example 102, 8-(2,4-Dichlorophenyl)-9-(4-(1-(1-(3-fluoropropyl)azetidin-3-ylidene)ethyl)phenyl)-6,7-dihydro-5H-benzo[7]annulene-3-carboxylic acid] | 89% | 300 pM
Cc1cc(C2=C(c3ccc(Cl)cc3Cl)CCCc3cc(C(=O)O)ccc32)cc(C)c1C=C1CN(CCCF)C1.Cl [Example 104, 8-(2,4-dichlorophenyl)-9-(4-((1-(3-fluoropropyl)azetidin-3-ylidene)methyl)-3,5-dimethylphenyl)-6,7-dihydro-5H-benzo[7]annulene-3-carboxylic acid hydrochloride] | 79% | 4900 pM
Cc1cc(F)ccc1C1=C(c2ccc(C=C3CN(CCCF)C3)cc2C(F)(F)F)c2ccc(C(=O)O)cc2CCC1 [Example 138, 8-(4-fluoro-2-methylphenyl)-9-(4-((1-(3-fluoropropyl)azetidin-3-ylidene)methyl)-2-(trifluoromethyl)phenyl)-6,7-dihydro-5H-benzo[7]annulene-3-carboxylic acid] | 95% | 1800 pM
O=C(O)c1ccc2c(c1)CCCC(c1cccc(Cl)c1C(F)(F)F)=C2c1ccc(C=C2CN(CCC(F)F)C2)cc1 [Example 13, 8-(3-chloro-2-(trifluoromethyl)phenyl)-9-(4-((1-(3,3-difluoropropyl)azetidin-3-ylidene)methyl)phenyl)-6,7-dihydro-5H-benzo[7]annulene-3-carboxylic acid] | 89% | 500 pM
Cc1cccc(C2=C(c3ccc(C=C4CN(CCCF)C4)cc3)c3ccc(C(=O)O)cc3CCC2)c1Cl [Example 76, 8-(2-chloro-3-methylphenyl)-9-(4-((1-(3-fluoropropyl)azetidin-3-ylidene)methyl)phenyl)-6,7-dihydro-5H-benzo[7]annulene-3-carboxylic acid] | 94% | 500 pM
Cc1ccc(C2=C(c3ccc(C=C4CN(CCCF)C4)c(F)c3)c3ccc(C(=O)O)cc3CCC2)c(F)c1 [Example 69, 9-(3-fluoro-4-((1-(3-fluoropropyl)azetidin-3-ylidene)methyl)phenyl)-8-(2-fluoro-4-methylphenyl)-6,7-dihydro-5H-benzo[7]annulene-3-carboxylic acid] | 94% | 500 pM
O=C(O)c1ccc2c(c1)CCCC(c1ccc(C(F)(F)F)c(C(F)(F)F)c1)=C2c1ccc(C=C2CN(CCCF)C2)cc1 [Example 146, 8-(3,4-bis(trifluoromethyl)phenyl)-9-(4-((1-(3-fluoropropyl)azetidin-3-ylidene)methyl)phenyl)-6,7-dihydro-5H-benzo[7]annulene-3-carboxylic acid] | 88% | 1400 pM
Cc1cc(C(F)(F)F)ccc1C1=C(c2ccc(C=C3CN(CCC(F)(F)F)C3)cc2)c2ccc(C(=O)O)cc2CCC1 [Example 113, 8-(2-methyl-4-(trifluoromethyl)phenyl)-9-(4-((1-(3,3,3-trifluoropropyl)azetidin-3-ylidene)methyl)phenyl)-6,7-dihydro-5H-benzo[7]annulene-3-carboxylic acid] | 90% | 300 pM
